One series addresses STK16 (Homo sapiens, UniProt O75716). The series can be described thus: biochemical. Format: binding.
A further series has as its target T1, GAK (Homo sapiens, UniProt O14976).
T1 sequence (O14976 1-1311): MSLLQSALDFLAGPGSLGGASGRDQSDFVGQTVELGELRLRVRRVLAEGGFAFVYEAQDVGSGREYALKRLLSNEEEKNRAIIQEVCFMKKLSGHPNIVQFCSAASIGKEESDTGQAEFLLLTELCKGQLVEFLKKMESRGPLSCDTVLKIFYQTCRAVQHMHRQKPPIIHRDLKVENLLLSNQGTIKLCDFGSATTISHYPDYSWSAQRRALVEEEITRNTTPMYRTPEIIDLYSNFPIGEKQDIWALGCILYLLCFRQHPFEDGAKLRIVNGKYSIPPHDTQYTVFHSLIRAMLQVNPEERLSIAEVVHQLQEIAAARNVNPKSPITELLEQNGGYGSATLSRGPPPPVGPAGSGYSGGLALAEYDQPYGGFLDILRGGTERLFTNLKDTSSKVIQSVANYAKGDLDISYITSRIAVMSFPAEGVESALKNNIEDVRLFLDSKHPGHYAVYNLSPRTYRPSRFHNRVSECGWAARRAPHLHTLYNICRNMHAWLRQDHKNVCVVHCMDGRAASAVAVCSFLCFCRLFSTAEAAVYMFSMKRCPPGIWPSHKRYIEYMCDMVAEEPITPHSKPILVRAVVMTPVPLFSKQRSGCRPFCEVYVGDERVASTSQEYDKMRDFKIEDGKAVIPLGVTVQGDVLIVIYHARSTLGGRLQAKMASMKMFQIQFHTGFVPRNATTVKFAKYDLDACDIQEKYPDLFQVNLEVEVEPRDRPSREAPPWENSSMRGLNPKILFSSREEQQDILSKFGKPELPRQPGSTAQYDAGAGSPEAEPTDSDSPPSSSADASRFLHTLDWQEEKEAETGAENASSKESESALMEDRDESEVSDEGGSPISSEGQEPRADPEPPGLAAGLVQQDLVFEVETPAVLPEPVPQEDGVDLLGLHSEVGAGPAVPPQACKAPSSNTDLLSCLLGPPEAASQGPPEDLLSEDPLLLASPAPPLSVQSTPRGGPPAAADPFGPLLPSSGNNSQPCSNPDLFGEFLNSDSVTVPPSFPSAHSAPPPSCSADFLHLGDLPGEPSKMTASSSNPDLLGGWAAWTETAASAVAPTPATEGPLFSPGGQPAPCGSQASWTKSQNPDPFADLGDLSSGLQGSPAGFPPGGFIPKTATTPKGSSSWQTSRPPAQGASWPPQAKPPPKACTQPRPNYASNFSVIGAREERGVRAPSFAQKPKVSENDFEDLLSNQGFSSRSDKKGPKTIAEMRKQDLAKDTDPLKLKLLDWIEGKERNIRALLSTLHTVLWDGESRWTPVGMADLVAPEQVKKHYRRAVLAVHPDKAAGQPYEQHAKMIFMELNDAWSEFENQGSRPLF
The series can be described thus: biochemical. Format: binding.

The next series concerns the target AAK1 (Homo sapiens, UniProt Q2M2I8). The series is described as follows: biochemical.
The target of another series is BIKE (Homo sapiens, UniProt Q9NSY1). The series can be described thus: biochemical. Type of series: binding.
The conditions of series [1]: cited from earlier work.
The test system of series [2] is cytokine‐induced JAK/STAT signaling. The series can be described thus: Cytokine-stimulated pSTAT inhibition in human leukocyte subpopulations (flow cytometry). Type of series: cell-based. Particulars: human CD4+ T cells, CD8+ T cells, NK cells, monocytes; 1 h preincubation, 15 min cytokine stimulation. The procedure: Leukocyte preparation and experimental design were largely performed as previously described (McInnes et al, 2019). Whole blood samples from healthy donors (N = 6) were apheresed, and leukocyte‐enriched fractions were transferred to the company Primity Bio (Fremont, CA, USA). […] Cytokines were used at the following concentrations: IL‐2 (4 ng/ml), IL‐3 (12 ng/ml), IL‐4 (350 pg/ml), IL‐6 (1.5 ng/ml), IL‐10 (12 ng/ml), IL‐15 (850 pg/ml), IL‐21 (200 pg/ml), IFN‐γ (100 pg/ml), G‐CSF (5 ng/ml), and GM‐CSF (5 pg/ml). The choice of cytokine concentrations and incubation conditions was optimized in order to ensure consistent signaling in alternate cell types and pSTAT readouts. After stimulation, cells were fixed, permeabilized, and fluorescence‐barcoded, and multicolor flow cytometry was performed as previously described to quantify STAT phosphorylation in gated leukocyte subpopulations (McInnes et al, 2019). For a given case (stimulation, cell type, and pSTAT combination), the IC50 was determined if there was a consistent response to the stimulus as described in the statistical analysis section. The primary pSTAT observed for each stimulus is reported. […]
IC50 values were determined by analyzing the mean fluorescence intensity (MFI) of cytokine‐stimulated samples in the presence of the designated concentration of compound. […]
A general note: A flow cytometer gives signals particle by particle.

On the set-up of series [3]: method as in Genovese et al, 2019. Particulars: RA patients, 10,127 patients-year of exposure, up to 6.9 years; ref Genovese et al, 2019; cited from earlier work.
Series [4] has as its system SARS‐CoV‐2. Type of series: cell-based. Particulars: pretreatment 24 h with 400 and 800 nM, MOI 0.1, 48 h after infection, P < 0.05.
Series [5] relates to SARS‐CoV‐2.
Series [6] concerns primary human liver spheroids. The series can be described thus: Viability of primary human liver spheroids (intracellular ATP). Particulars: up to concentrations approximately eightfold higher than clinical AUC at 4 mg ([…]), n = 10. Type of series: cell-based.
Another series has as its system IL‐6. As to conditions: patients with active RA, inadequate response to methotrexate, P < 0.05.
A further series has as its system JAK2. As to conditions: ref Fridman et al, 2010; cited from earlier work.

Structures are written as SMILES. Where two headings read alike, the source gives them in different places. Where only a bound is given, the exact number is not on record here.

As usually defined, the Kd is the free concentration of one partner at which half of the binding sites on the other are occupied at equilibrium, for simple one-to-one binding.

STK16, sequence (O75716 whole entry): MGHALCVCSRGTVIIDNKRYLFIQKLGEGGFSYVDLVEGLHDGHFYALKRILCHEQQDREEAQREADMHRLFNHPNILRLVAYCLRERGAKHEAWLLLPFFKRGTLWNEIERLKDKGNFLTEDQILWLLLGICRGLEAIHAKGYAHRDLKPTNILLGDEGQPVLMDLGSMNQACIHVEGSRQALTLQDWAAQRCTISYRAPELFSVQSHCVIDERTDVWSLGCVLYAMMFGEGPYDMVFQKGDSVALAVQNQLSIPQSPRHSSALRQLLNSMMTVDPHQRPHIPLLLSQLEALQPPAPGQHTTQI
BIKE, sequence (Q9NSY1 whole entry): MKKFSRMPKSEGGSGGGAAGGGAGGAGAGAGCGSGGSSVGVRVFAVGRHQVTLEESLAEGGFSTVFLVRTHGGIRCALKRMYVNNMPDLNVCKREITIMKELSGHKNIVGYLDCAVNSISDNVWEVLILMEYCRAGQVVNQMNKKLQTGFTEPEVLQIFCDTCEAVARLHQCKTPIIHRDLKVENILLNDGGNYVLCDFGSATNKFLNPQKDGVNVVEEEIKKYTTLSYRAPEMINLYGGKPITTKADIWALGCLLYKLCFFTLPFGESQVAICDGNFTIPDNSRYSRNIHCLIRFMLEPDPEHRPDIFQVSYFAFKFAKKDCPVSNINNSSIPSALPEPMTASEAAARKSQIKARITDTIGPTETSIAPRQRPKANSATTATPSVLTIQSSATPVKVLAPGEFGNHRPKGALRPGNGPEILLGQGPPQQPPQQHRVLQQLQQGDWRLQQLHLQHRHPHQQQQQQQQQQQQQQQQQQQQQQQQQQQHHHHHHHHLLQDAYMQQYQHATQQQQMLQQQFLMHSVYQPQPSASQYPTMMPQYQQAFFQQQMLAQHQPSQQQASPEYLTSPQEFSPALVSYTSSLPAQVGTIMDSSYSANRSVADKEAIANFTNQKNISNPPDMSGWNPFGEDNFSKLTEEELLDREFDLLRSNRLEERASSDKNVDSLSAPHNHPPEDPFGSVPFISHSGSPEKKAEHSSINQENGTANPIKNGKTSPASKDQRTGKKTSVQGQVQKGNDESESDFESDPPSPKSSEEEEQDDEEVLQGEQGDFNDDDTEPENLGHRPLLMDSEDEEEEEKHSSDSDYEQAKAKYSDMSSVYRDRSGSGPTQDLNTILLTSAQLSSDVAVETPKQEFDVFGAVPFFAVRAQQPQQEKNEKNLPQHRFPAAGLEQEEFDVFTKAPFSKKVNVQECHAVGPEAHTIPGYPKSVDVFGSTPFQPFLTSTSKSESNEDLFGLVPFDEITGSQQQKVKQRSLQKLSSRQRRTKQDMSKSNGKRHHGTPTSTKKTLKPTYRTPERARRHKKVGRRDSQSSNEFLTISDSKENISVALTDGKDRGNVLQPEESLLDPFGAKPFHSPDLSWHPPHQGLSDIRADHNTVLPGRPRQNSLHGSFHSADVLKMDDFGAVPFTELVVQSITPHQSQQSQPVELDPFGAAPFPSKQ
AAK1, sequence (Q2M2I8 whole entry): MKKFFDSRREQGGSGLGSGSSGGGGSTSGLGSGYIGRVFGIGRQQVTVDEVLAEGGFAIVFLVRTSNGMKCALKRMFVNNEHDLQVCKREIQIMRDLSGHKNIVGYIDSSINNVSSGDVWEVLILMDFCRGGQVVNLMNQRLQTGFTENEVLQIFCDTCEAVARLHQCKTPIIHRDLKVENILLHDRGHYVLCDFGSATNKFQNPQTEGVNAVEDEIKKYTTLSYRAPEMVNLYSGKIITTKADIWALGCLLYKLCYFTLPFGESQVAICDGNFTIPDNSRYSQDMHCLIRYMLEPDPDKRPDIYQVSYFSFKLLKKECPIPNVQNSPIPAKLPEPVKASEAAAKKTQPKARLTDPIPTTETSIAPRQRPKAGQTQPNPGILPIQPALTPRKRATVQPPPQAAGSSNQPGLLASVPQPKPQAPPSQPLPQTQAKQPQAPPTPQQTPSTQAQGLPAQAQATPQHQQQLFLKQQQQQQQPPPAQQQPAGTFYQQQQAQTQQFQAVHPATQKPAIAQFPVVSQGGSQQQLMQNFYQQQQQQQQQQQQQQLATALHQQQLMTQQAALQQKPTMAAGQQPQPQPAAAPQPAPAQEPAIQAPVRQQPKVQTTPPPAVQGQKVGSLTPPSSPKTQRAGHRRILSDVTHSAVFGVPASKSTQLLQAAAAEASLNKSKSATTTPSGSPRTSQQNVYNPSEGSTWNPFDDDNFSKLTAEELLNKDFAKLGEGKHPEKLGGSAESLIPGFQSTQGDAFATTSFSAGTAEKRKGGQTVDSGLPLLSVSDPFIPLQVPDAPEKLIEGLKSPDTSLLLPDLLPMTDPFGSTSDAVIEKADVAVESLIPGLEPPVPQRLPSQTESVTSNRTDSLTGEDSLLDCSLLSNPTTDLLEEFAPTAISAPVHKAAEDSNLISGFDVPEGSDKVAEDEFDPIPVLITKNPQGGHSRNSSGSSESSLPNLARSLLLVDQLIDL

Turning to `NC(=O)Nc1cc(-c2cccc(F)c2)sc1C(=O)N[C@H]1CCCNC1` [AZD7762], the Kd at STK16 stood at 1900 nM; at GAK (read-out: GAK Kd) it was 1.4 nM; at AAK1, 2.9 nM; on BIKE it was 13 nM.
As for `CCS(=O)(=O)N1CC(CC#N)(n2cc(-c3ncnc4[nH]ccc34)cn2)C1` [Baricitinib], the “unbound fraction of free bioavailable drug, AUC” value in [1] (RA patient sera, baricitinib 2 mg, ref data on file) is 326 nM. In addition, in [1] (RA patients, ref Eli Lilly and Company, 2019), the half-life entry was “approximately 12 h”. In series [1] (ref Eli Lilly and Company, 2019), the main clearance mechanism result is “renal elimination”. Besides, the “signaling of cytokines implicated in COVID-19 infection (IL-2, IL-6, IL-10, IFN-γ, G-CSF), pSTAT inhibition” value in series [2] is “inhibited signaling”. Also, the “incidence rate of serious infection” value in series [3] is given as 2.8 /100 patient‐years. Besides, in the series on SARS‐CoV‐2 [4], the “reduction of viral load” value is 30–40%. In the series with SARS‐CoV‐2 [5] (4 mg (Patients A, C, D) or 2 mg (Patient B) once daily oral, 10-12 days), the “clinical outcome of case series” value is “improved lung function, resolution of their illness, and reductions in viral load, plasma IL‐6, ferritin, and CRP levels”. Also, in the series on SARS‐CoV‐2 [5] (four patients, 2 or 4 mg once daily oral, 10-12 days), the tolerability result is listed as “well‐tolerated”. Further, the liver aminotransferases entry in the series with SARS‐CoV‐2 [5] (four patients, during baricitinib treatment) is given as “Transient increases”. For the same molecule, in the series on SARS‐CoV‐2 [5] (without interrupting baricitinib treatment), the “time to improvement of liver enzyme elevations” value is not above 72 h. Moreover, in series [6], the “liver cell injury / spheroid viability” value is listed as “did not result in liver cell injury”. Also, the “change from baseline in plasma IL-6 at week 12” value with IL‐6 is listed as “significant reduction”. Moreover, the “binding affinity for JAK2” value in the series with JAK2 was 5.7 nM.
Take `CC[C@@H]1CN(C(=O)NCC(F)(F)F)C[C@@H]1c1cnc2cnc3[nH]ccc3n12` [Upadacitinib]: the results for the Kd at STK16, on GAK and on BIKE were 9300 nM, 2200 nM and 11000 nM, respectively.

The values above are taken from paper PMC7300657 (EMBO Molecular Medicine, 2020).
